Counter-ions that a name gives are not always drawn. Like-named read-outs stand apart in the source and are kept apart here.
Legend:
[1] = tested on: Cryptosporidium parvum; test: qRT-PCR assay of the growth of C. parvum in vitro in HCT-8 host cells (primary and secondary screening, EC50); assay type: cell-based; details: for % Inhibition (3.3 uM): secondary screening at 3.3 uM
[2] = tested on: HCT-8 host cells (Hs18S)
[3] = primary screening at 10 uM, from Hs18S ΔCT
[4] = primary screening at 10 uM, treated vs control

| Molecule | Inhibition (%) ([1]; primary screening at 10 uM) | Cytotoxicity (%) [2, 3] | Hs18S ΔCT [2, 4] | also measured |
| --- | --- | --- | --- | --- |
| C[C@@H]1[C@H](O)[C@@H](C)/C=C/C=C/CC/C=C/C=C/C=C/C=C/C(O[C@H]2O[C@H](C)[C@@H](O)[C@H](N)[C@@H]2O)CC2O[C@](O)(CC(O)C(O)CCC(O)CC(O)CC(O)CC(=O)O[C@H]1C)CC(O)C2C(=O)O (some centres unmarked) [NYSTATIN] | 34.97% | 51.7% | 1.05 | – |
| COc1ccc(-c2coc3c4c(c(CC=C(C)C)c(O)c3c2=O)OC(C)(C)C=C4)cc1 [OSAJIN 4'-METHYL ETHER] | -21.87% | -2.7% | -0.04 | – |
| COC[C@]12CN(C=O)[C@@H]3[C@@H]4[C@H](OC)[C@H]1[C@@]3([C@@H](OC)C[C@H]2O)[C@@H]1C[C@@]2(O)[C@H](OC(=O)c3ccccc3)[C@@H]1[C@]4(OC(C)=O)[C@@H](O)[C@@H]2OC [OXONITINE] | 0.75% | 3.3% | 0.05 | – |
| COc1cc2c(cc1-c1cc3cc4ccoc4cc3oc1=O)OCO2 [PACHYRRHIZIN] | 29.77% | -6.0% | -0.08 | – |
| CN(C)CC(=O)OC[C@@H](O)[C@@H](O)[C@H](O)[C@@H](O)C(=O)[O-].[Na+] [PANGAMIC ACID SODIUM] | -4.04% | – | – | Cytotoxicity (%) ([2]; 10 µM): -61.0% |
| CC(=O)OCC(OC(C)=O)C(OC(C)=O)C(OC(C)=O)C(OC(C)=O)C(COC(C)=O)OC(C)=O (centres unmarked) [PERSEITOL HEPTAACETATE] | 0.17% | -10.1% | -0.14 | – |
| Cl.NCCc1ccccc1 [PHENETHYLAMINE HYDROCHLORIDE] | 39.04% | 87.4% | 2.99 | – |
| CC(=O)c1c(O)cc(O)cc1O [PHLORACETOPHENONE] | -25.30% | 26.5% | 0.44 | – |
| COc1ccc(/C=C/c2cc(O)cc(O[C@@H]3O[C@H](CO)[C@@H](O)[C@H](O)[C@H]3O)c2)cc1 [PICEID METHYL ETHER] | 15.82% | 30.3% | 0.52 | – |
| COc1cc([C@@H]2c3cc4c(cc3[C@H](OC(C)=O)[C@H]3COC(=O)[C@@H]23)OCO4)cc(OC)c1OC [PICROPODOPHYLLIN ACETATE] | 20.82% | 50.6% | 1.02 | – |
| COc1cc([C@@H]2c3cc4c(cc3[C@H](OC(C)=O)[C@H]3COC(=O)[C@H]23)OCO4)cc(OC)c1OC [PODOPHYLLIN ACETATE] | 72.02% | 33.2% | 0.58 | % Inhibition (3.3 uM) [1]: 64% |
| CC(C)c1c(O)c(-c2cc3c(c(C(C)C)c2O)CCC2C(C)(C)CCC[C@]32C)cc2c1CCC1C(C)(C)CCC[C@]21C (some centres unmarked) [PODOTOTARIN] | -4.91% | 2.5% | 0.04 | – |
| COc1ccc(-c2coc3c4c(c(CC=C(C)C)c(O)c3c2=O)OC(C)(C)C=C4)cc1OC [POMIFERIN DIMETHYL ETHER] | -58.61% | 6.1% | 0.09 | – |
| O=c1cc(-c2ccccc2)oc2cccc(O)c12 [PRIMULETIN] | -14.55% | 3.1% | 0.05 | – |
| O=C(O)[C@@H]1CCCN1 [PROLINE (L)] | – | – | – | Inhibition (%) ([1]; 10 µM): -22.72; Hs18S ΔCT [2]: 0.03; Cytotoxicity (%) ([2]; 10 µM): 1.9 |
| C[C@@H]1C[C@H](O)[C@@]2(O)[C@]13CC(=O)OC[C@@]2(C)[C@@](C)(O)C(=O)C3 [PSEUDO-ANISATIN] | -5.73% | 9.2% | 0.14 | – |
| O=C(O)c1cc(O)c(=O)c2c(O)c(O)c(O)cc2c1 [PURPUROGALLIN-4-CARBOXYLIC ACID] | 2.20% | 7.3% | 0.11 | – |
| C=C(C)CCCC(C)CCOC(C)=O (centres unmarked) [RHODINYL ACETATE] | -15.58% | 10.9% | 0.17 | – |
| Cc1cc2nc3c(=O)[nH]c(=O)nc-3n(C[C@H](O)[C@H](O)[C@H](O)COP(=O)([O-])O)c2cc1C.[Na+] [RIBOFLAVIN 5-PHOSPHATE SODIUM] | -3.47% | -25.0% | -0.32 | – |
| NC[C@H]1O[C@H](O[C@H]2[C@H](O[C@@H]3O[C@H](CO)[C@@H](O)[C@H]3O)[C@@H](O)[C@H](N)C[C@@H]2N)[C@H](N)[C@@H](O)[C@@H]1O.O=S(=O)(O)O [RIBOSTAMYCIN SULFATE] | -35.94% | -2.0% | -0.03 | – |
| COc1ccc2c(c1O)-c1c(OC)c(OC)cc3c1[C@H](C2)N(C)CC3 [S-ISOCORYDINE (+)] | -15.72% | -47.4% | -0.56 | – |
| COc1cc2c(cc1O)CCNC2C (centres unmarked) [SALSOLINE] | -1.38% | -0.9% | -0.01 | – |
| CC1(C)CCC[C@]2(C)[C@H]3CC(=O)O[C@]3(C)CC[C@@H]12 [SCLAREOLIDE] | 26.58% | 32.7% | 0.57 | – |

| Molecule | Inhibition (%) ([1]; primary screening at 10 uM) | Cytotoxicity (%) [2, 3] | Hs18S ΔCT [2, 4] | also measured |
| --- | --- | --- | --- | --- |
| O=C(O)C1=C[C@@H](O)[C@@H](O)[C@H](O)C1 [SHIKIMIC ACID] | – | – | – | inhibition at 10 µM ([1]; Cryptosporidium parvum, HCT-8, primary screening at 10 uM, read-out: Inhibition (%)): 10.3%; Hs18S ΔCT ([2]; human, 41 h, 10 μM): 0.06 |
| Cc1c[nH]c2ccccc12 [SKATOLE] | 25.24% | 18.5% | 0.30 | – |
| C[C@@H]1CC[C@@]2(OC1)O[C@H]1C[C@H]3[C@@H]4CC[C@@H]5C[C@@H](O)CC[C@]5(C)[C@H]4CC[C@]3(C)[C@H]1[C@@H]2C [SMILAGENIN] | 13.52% | 33.2% | 0.58 | – |
| CC(C)=CCC/C(C)=C/CC/C(C)=C/CC/C(C)=C/CC/C(C)=C/CC/C(C)=C/CC/C(C)=C/CC/C(C)=C/CC/C(C)=C/CO [SOLANESOL] | -25.87% | 10.5% | 0.16 | – |
| CC(=O)OC/C=C(\C)CC/C=C(\C)CC/C=C(\C)CC/C=C(\C)CC/C=C(\C)CC/C=C(\C)CC/C=C(\C)CC/C=C(\C)CCC=C(C)C [SOLANESYL ACETATE] | 15.24% | – | – | Hs18S ΔCT [2]: -0.20; Cytotoxicity (%) ([2]; 10 µM): -14.8 |
| CC1=CC(=O)[C@H]2C(C)(C)CCC[C@]2(C)[C@@]1(O)CCc1ccoc1 [SOLIDAGENONE] | -14.64% | 39.6% | 0.73 | – |
| CN[C@@H]1[C@H](O)[C@H](NC)[C@H]2O[C@@]3(O)C(=O)C[C@@H](C)O[C@H]3O[C@@H]2[C@H]1O.Cl [SPECTINOMYCIN HYDROCHLORIDE] | -6.16% | -42.8% | -0.51 | – |
| CCNC(=O)CC[C@H](N)C(=O)[O-].[K+] [THEANINE POTASSIUM] | -54.47% | -36.3% | -0.45 | – |
| C[C@@H](O)[C@H](N)C(=O)O [THREONINE (L)] | -20.50% | -19.5% | -0.26 | – |
| COC(=O)C1(C)CCCC2(C)c3ccc(O)c(C(C)C)c3CCC12 (centres unmarked) [TOTAROL-19-CARBOXYLIC ACID, METHYL ESTER] | -12.62% | 22.4% | 0.37 | – |
| COc1cc2c3cc1Oc1cc(ccc1O)C[C@@H]1c4c(cc(OC)c(O)c4Oc4ccc(cc4)C[C@@H]3N(C)CC2)CC[N+]1(C)C.Cl.O.O.O.O.O.[Cl-] [TUBOCURARINE CHLORIDE] | 37.53% | -22.2% | -0.29 | – |
| CC[C@H]1OC(=O)C[C@@H](O)[C@H](C)[C@@H](O[C@@H]2O[C@H](C)[C@@H](O[C@H]3C[C@@](C)(O)[C@@H](O)[C@H](C)O3)[C@H](N(C)C)[C@H]2O)[C@@H](CC=O)C[C@@H](C)C(=O)/C=C/C(C)=C/[C@@H]1CO[C@@H]1O[C@H](C)[C@@H](O)[C@@H](OC)[C@H]1OC [TYLOSIN TARTRATE] | 25.75% | -14.2% | -0.19 | – |
| O=c1ccn([C@@H]2O[C@H](COP(=O)([O-])OP(=O)([O-])OP(=O)([O-])O)[C@@H](O)[C@H]2O)c(=O)[nH]1.[Na+].[Na+].[Na+] [URIDINE TRIPHOSPHATE TRISODIUM] | 91.48% | 14.5% | 0.23 | % Inhibition (3.3 uM) [1]: 17% |
| COC(=O)C1=CO[C@@H](O[C@@H]2O[C@H](CO)[C@@H](O)[C@H](O)[C@H]2O)[C@H]2[C@@H]1C(=O)C[C@@H]2C [VERBENALIN] | -4.48% | 81.7% | 2.45 | – |
| O.O=C(O)[C@@H]1[C@H]2C[C@H]3c4[nH]c5ccccc5c4CCN3C[C@@H]2CC[C@@H]1O [YOHIMBIC ACID HYDRATE] | -21.23% | -20.7% | -0.27 | – |
| C[C@H](CCC(=O)O)[C@H]1CC[C@H]2[C@@H]3C[C@H](O)[C@@H]4C[C@H](O)CC[C@]4(C)[C@H]3CC[C@]12C [alpha-HYDROXYDEOXYCHOLIC ACID] | -6.93% | -43.0% | -0.52 | – |
| ABAMECTIN (avermectin B1a shown) | 97.65% | 33.4% | 0.59 | % Inhibition (3.3 uM) [1]: -19% |
| AGELASINE (stereochemistry of diterpene unknown) | 43.55% | 16.8% | 0.27 | – |
| AVERMECTIN A1a | 97.32% | 1.6% | 0.02 | % Inhibition (3.3 uM) [1]: -85% |
| AVOCADYNOFURAN | -19.78% | 1.4% | 0.02 | – |
| AVOCATIN B | 4.87% | 21.9% | 0.36 | – |
| BACITRACIN | -21.81% | 1.4% | 0.02 | – |
| BERBAMINE HYDROCHLORIDE | 6.86% | -15.6% | -0.21 | – |

From PMC6736568, “Discovery of Novel Anti-cryptosporidial Activities From Natural Products by in vitro High-Throughput Phenotypic Screening” (Frontiers in Microbiology, 2019)
